Results reported in patent US20240358705A1, “COMPOSITIONS AND METHODS FOR TREATMENT OF CANCER” (Board of Supervisors of Louisiana State University and …, priority 2021, published 2024).

Key:
Assay type in all cases: cell-based, mouse
[1] = system: CD8 T cells; assay: 2-NBDG glucose analog uptake assay; conditions: 72 hours
Experimental: (§1) Lymph nodes and spleen were isolated from wild-type C57BL/6N mice. Tissue was mechanically dissociated with the back of a syringe plunger and passed through a 70 M filter. […] Treated cells were incubated at 37° C., 5% CO2 for the designed study duration.
Treated CD3 T cells were prepared following the in vitro T cell activation method and incubated for 72 hours at 37° C., 5% CO2. […] (Thermo #N13195) Cells were then incubated for one hour at 37° C., 5% CO2. After incubation, T cells were washed, pelleted and stained with anti-CD4, anti-CD8, anti-CD3 following the immune profiling by flow cytometry method. Percent uptake was calculated using mean fluorescent intensity (MFI).

[2] = system: CD4 T cells; assay: CD4 T cell activation markers by flow cytometry; conditions: 72 hours
Experimental: as §1, with “duration. […] After staining, cells were pelleted, resuspended and run by a BD FACSymphony A3 flow cytometer.” for “duration.”

[3] = system: BM-MDSCs; assay: XFe ATP rate assay, BM-MDSCs; conditions: 10 μM, 72 hours
Experimental: Bone marrow cells were isolated by flushing the tibia and femurs of wild-type C57BL/6N mice. […] To generate BM-MDSCs, 3×10^6 cells were plated in a 6-well dish and incubated at 37° C., 5% CO2 for 96 hours. For treatment, drugs were administered at either 3 μM or 10 μM concentrations and added to the BM-MDSC cell culture well 24 hours after plating.
Treated CD8 T cell were prepared following the in vitro T cell activation method and incubated for 72 hours at 37° C., 5% CO2. Treated BM-MDSCs were prepared followed the in vitro BM-MDSCs differentiation method. The XFe ATP rate assay preparation and analysis was conducted following the manufacturer's user guide and instructions. […] Treated cells were removed from culture, pelleted and resuspended in warm assay medium at a concentration of 3×10^6 cells/ml (1.5×10^5 cells/well) for CD8 T cells and 2.6×10^6 cells/ml (1.3×10^5 cells/well) for BM-MDSCs. Cells were adhered to the culture plate by centrifugation 200×G, for one minute with zero brake per the manufacturer's instructions for immobilization of non-adherent cells (Agilent, Santa Clara, CA). […] Results were procured using the Seahorse XF real-time ATP rate assay report generator.

[4] = system: OT-I CD8 T cells; assay: In vitro cytotoxicity assay (E.G7-OVA target cells); conditions: CD8 T cells treated 72 hours (10 μM printed for GLPG1205)
Experimental: Lymph nodes and spleen were isolated from wild-type C57BL/6N mice. Tissue was mechanically dissociated with the back of a syringe plunger and passed through a […]. […] Treated cells were incubated at 37° C., 5% CO2 for the designed study duration. Treated OT-I CD8 T cells were prepared following the in vitro T cell activation method. Non-target EL4 cells (CFSE low—0.2 μM) and target E.G7-OVA cells (CFSE high—[…]) were prepared following the CFSE labeling protocol. Cells were subsequently washed, pelleted, resuspended at 1×10^6 cells/ml, and mixed at 1:1 ratio. 100 μl of the mixed cells were plated into a 96-well flat bottom plate.

## O=c1nc(OC[C@@H]2COCCO2)cc2n1CCc1cc(C#CC3CC3)ccc1-2 [GLPG1205, 9-Cyclopropylethynyl-2-((S)-1-[1,4]dioxan-2-ylmethoxy)-6,7-dihydropyrimido[6,1-a]isoquinolin-4-one]
[1]; 3 μM
  2-NBDG uptake (MFI), Log2 fold change compared to DMSO control: 0.19 Log2 fold change
  2-NBDG uptake, increase vs DMSO: 13.92%
[1]; 10 μM
  2-NBDG uptake (MFI), Log2 fold change compared to DMSO control: 0.24 Log2 fold change
  2-NBDG uptake, increase vs DMSO: 17.74%
[2]; 3 μM
  CD25 expression, increase vs DMSO: 14.28%
  CTLA4 expression, increase vs DMSO: 30.31%
[2]; 10 μM
  CD25 expression, increase vs DMSO: 11.37%
  CTLA4 expression, increase vs DMSO: 51.16%
[3]
  energetic phenotype (energetic map): glycolytic-predominant quiescent phenotype
[3]; DMSO 39.85%
  percent of ATP generated by glycolysis: 45.55%
[3]; DMSO 60.15%
  percent of ATP generated by OXPHOS: 54.45%
[3]; DMSO 690.95
  ATP production rate through mitochondrial OXPHOS: 537.83 pmol/min
[3]; DMSO control 1149.1
  total ATP production rate: 987.48 pmol/min
[3]; vs DMSO
  ECAR and PER: did not observe any changes
  OCR: overall reduction in OCR
[4]
  killing capacity compared to DMSO control (percent specific lysis): significantly improved killing capacity
